From PubChem BioAssay AID248 (DTP/NCI, 2004)
“And” between values parts separate entries of the source, which are not always exact repeats. Equal entries are not always repeated. Toxic doses and inconclusive results are not listed. Rule as the data show it: active = T/C of 150% or more; inactive = T/C below 125%.

System: L1210 leukemia ip in BDF1 mice, survival T/C
Experiment: NCI In Vivo Anticancer Drug Screen. Data for tumor model L1210 Leukemia (intraperitoneal) in B6D2F1 (BDF1) mice
Conditions: endpoint: mean survival time, higher = longer survival
In short: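 Tumor was transplanted into mice, which were then dosed with test compound or vehicle alone. Survival was recorded for each group, and the treated figure was expressed relative to the control figure.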

[1] = dose: 200.0 mg/kg/injection, schedule: Q01DX009 (ip), vehicle: saline with Tween-80
[2] = dose: 400.0 mg/kg/injection, schedule: Q01DX009 (ip), vehicle: saline with Tween-80
[3] = dose: 25.0 mg/kg/injection, schedule: Q01DX009 (ip), vehicle: Klucel (hydroxypropylcellulose) (HPC)
[4] = dose: 100.0 mg/kg/injection, schedule: Q04DX003 (ip), vehicle: saline
[5] = dose: 200.0 mg/kg/injection, schedule: Q04DX003 (ip), vehicle: saline
[6] = dose: 100.0 mg/kg/injection, schedule: Q01DX009 (ip), vehicle: saline
[7] = dose: 200.0 mg/kg/injection, schedule: Q01DX009 (ip), vehicle: saline
[8] = dose: 400.0 mg/kg/injection, schedule: Q01DX009 (ip), vehicle: saline
[9] = dose: 100.0 mg/kg/injection, schedule: Q04DX003 (ip), vehicle: Klucel (hydroxypropylcellulose) (HPC)
[10] = dose: 200.0 mg/kg/injection, schedule: Q04DX003 (ip), vehicle: Klucel (hydroxypropylcellulose) (HPC)
[11] = dose: 400.0 mg/kg/injection, schedule: Q04DX003 (ip), vehicle: Klucel (hydroxypropylcellulose) (HPC)
[12] = dose: 100.0 mg/kg/injection, schedule: Q01DX001 (ip), vehicle: carboxymethylcellulose (CMC)
[13] = dose: 200.0 mg/kg/injection, schedule: Q01DX001 (ip), vehicle: carboxymethylcellulose (CMC)
[14] = dose: 400.0 mg/kg/injection, schedule: Q01DX001 (ip), vehicle: carboxymethylcellulose (CMC)
[15] = dose: 100.0 mg/kg/injection, schedule: Q01DX009 (ip), vehicle: saline with Tween-80
[16] = dose: 100.0 mg/kg/injection, schedule: Q04DX003 (ip), vehicle: saline with Tween-80
[17] = dose: 200.0 mg/kg/injection, schedule: Q04DX003 (ip), vehicle: saline with Tween-80
[18] = dose: 100.0 mg/kg/injection, schedule: Q01DX009 (ip), vehicle: Klucel (hydroxypropylcellulose) (HPC)
[19] = dose: 100.0 mg/kg/injection, schedule: Q04DX002 (ip), vehicle: saline
[20] = dose: 200.0 mg/kg/injection, schedule: Q01DX009 (ip), vehicle: Klucel (hydroxypropylcellulose) (HPC)
[21] = dose: 200.0 mg/kg/injection, schedule: Q04DX002 (ip), vehicle: saline
[22] = dose: 400.0 mg/kg/injection, schedule: Q01DX009 (ip), vehicle: Klucel (hydroxypropylcellulose) (HPC)
[23] = dose: 100.0 mg/kg/injection, schedule: Q01DX001 (ip), vehicle: saline
[24] = dose: 50.0 mg/kg/injection, schedule: Q04DX002 (ip), vehicle: saline
[25] = dose: 400.0 mg/kg/injection, schedule: Q04DX003 (ip), vehicle: saline

Measured: T/C

Cc1cc(C)c(OS(=O)(=O)c2ccc([N+](=O)[O-])cc2)c(C)c1
inactive: [1] 87 % of control | [2] 89 % of control

CN(CCc1cnc2nc(N)nc(N)c2n1)c1ccc(C(=O)NC(CCC(=O)O)C(=O)O)cc1 (stereo not drawn)
inactive: dose: 12.5 mg/kg/injection, schedule: Q01DX009 (ip), vehicle: Klucel (hydroxypropylcellulose) (HPC) 113 % of control | [3] 118 % of control | [4] 110 % of control | [5] 105 % of control

CC(NC(=O)Cc1ccccc1)C(=O)NN (stereo not drawn)
inactive: [6] 100 % of control | [7] 102 % of control | [8] 91 % of control

CCC[N+]12CC=C3COC(=O)C(C)(O)C(C)(O)C(C)C(=O)OC(CC1)C32 (stereo not drawn)
inactive: dose: 50.0 mg/kg/injection, schedule: Q01DX009 (ip), vehicle: saline 92 % of control | [6] 95 % of control | [7] 95 % of control

COc1ccc(/C=C(/C)C(=O)c2ccccc2)cc1
inactive: [9] 98 % of control | [10] 88 % of control | [11] 103 % of control

CCCCCCCCCCCCCCCCS(=O)(=O)N/N=C/c1ccc(NC(C)=O)cc1
inactive: [12] 98 % of control | [13] 95 % of control | [14] 103 % of control

O=C(C=C(C(F)(F)F)C(F)(F)F)c1ccccc1Cl
inactive: dose: 12.5 mg/kg/injection, schedule: Q04DX003 (ip), vehicle: saline with Tween-80 97 % of control | dose: 25.0 mg/kg/injection, schedule: Q04DX003 (ip), vehicle: saline with Tween-80 86 % of control | dose: 50.0 mg/kg/injection, schedule: Q04DX003 (ip), vehicle: saline with Tween-80 100 % of control

CCc1c(C(OC)OC)[nH]c(=S)[nH]c1=O
inactive: [15] 94 % of control | [16] 100 % of control | [1] 100 % of control | [17] 100 % of control | [2] 94 % of control | dose: 400.0 mg/kg/injection, schedule: Q04DX003 (ip), vehicle: saline with Tween-80 105 % of control

S=c1[nH]c2ccccc2s1
inactive: dose: 25.0 mg/kg/injection, schedule: Q01DX009 (ip), vehicle: saline with Tween-80 94 % of control | dose: 50.0 mg/kg/injection, schedule: Q01DX009 (ip), vehicle: saline with Tween-80 105 % of control | [18] 88 % of control | [15] 109 % of control | [19] 115 % of control | dose: 100.0 mg/kg/injection, schedule: Q04DX003 (ip), vehicle: other 96 % of control | [16] 96 % of control | [20] 100 % of control | [21] 112 % of control | dose: 200.0 mg/kg/injection, schedule: Q04DX003 (ip), vehicle: other 96 % of control | [17] 100 % of control | [22] 95 % of control | dose: 400.0 mg/kg/injection, schedule: Q04DX003 (ip), vehicle: other 101 % of control

COc1cc2c(c(OC)c1OC)-c1ccc(OC)c(=O)cc1C(=O)CC2
inactive: dose: 50.0 mg/kg/injection, schedule: Q01DX001 (ip), vehicle: carboxymethylcellulose (CMC) 122 % of control

CCSCCOC(=S)Nc1ccccc1
inactive: [9] 98 % of control | [10] 97 % of control | [11] 92 % of control

CCCCCCN1C(=O)c2ccccc2S1(=O)=O
inactive: dose: 222.0 mg/kg/injection, schedule: Q01DX Z (ip), vehicle: methylcellulose (MC) 101 % of control | dose: 333.0 mg/kg/injection, schedule: Q01DX Z (ip), vehicle: methylcellulose (MC) 113 % of control | dose: 500.0 mg/kg/injection, schedule: Q01DX Z (ip), vehicle: methylcellulose (MC) 100 % of control

Nc1csc2cccc[n+]12
inactive: dose: 25.0 mg/kg/injection, schedule: Q04DX003 (ip), vehicle: saline 100 % of control | [23] 96 % of control

Cc1cc(N(CCOS(C)(=O)=O)CCOS(C)(=O)=O)ccc1C=Nc1ccc2ccccc2c1
inactive: dose: 13.3 mg/kg/injection, schedule: Q04DX003 (ip), vehicle: Klucel (hydroxypropylcellulose) (HPC) 116 % of control | dose: 20.0 mg/kg/injection, schedule: Q04DX003 (ip), vehicle: Klucel (hydroxypropylcellulose) (HPC) 108 % of control and 117 % of control | dose: 80.0 mg/kg/injection, schedule: Q04DX003 (ip), vehicle: Klucel (hydroxypropylcellulose) (HPC) 112 % of control

O=C1c2ccccc2C(=O)c2ccccc21
inactive: [18] 102 % of control | [20] 88 % of control | [22] 100 % of control

O=C(O)c1cc(C(=O)O)c(C(=O)O)cc1C(=O)O
inactive: [15] 96 % of control | [1] 91 % of control | [2] 94 % of control

CCCCCCNCCC[P+](c1ccccc1)(c1ccccc1)c1ccccc1
inactive: dose: 12.5 mg/kg/injection, schedule: Q04DX002 (ip), vehicle: saline 91 % of control | dose: 25.0 mg/kg/injection, schedule: Q04DX002 (ip), vehicle: saline 98 % of control | [24] 98 % of control

Nc1nc(N)c(NC/C=C\c2ccc([N+](=O)[O-])cc2)c(-c2ccccc2)n1
inactive: dose: 50.0 mg/kg/injection, schedule: Q01DX001 (ip), vehicle: saline 91 % of control | [23] 97 % of control | dose: 200.0 mg/kg/injection, schedule: Q01DX001 (ip), vehicle: saline 103 % of control | dose: 400.0 mg/kg/injection, schedule: Q01DX001 (ip), vehicle: saline 109 % of control

Nc1cccc2c1nc(NCCO)c1ccccc12
inactive: [9] 114 % of control | [10] 103 % of control | [11] 103 % of control

O=C(/C=C/c1cccnc1)NCC(O)CO (stereo not drawn)
inactive: [6] 101 % of control | [4] 108 % of control | [7] 97 % of control | [5] 105 % of control | [8] 100 % of control | [25] 96 % of control

CN(C(=S)SSC(=S)N(C)c1ccccc1)c1ccccc1
inactive: [3] 96 % of control | dose: 50.0 mg/kg/injection, schedule: Q01DX009 (ip), vehicle: Klucel (hydroxypropylcellulose) (HPC) 101 % of control | [18] 101 % of control | [9] 105 % of control | [10] 89 % of control | [11] 93 % of control

O=C(/C=C/c1ccccc1)c1ccccc1
inactive: dose: 100.0 mg/kg/injection, schedule: Q01DX001 (ip), vehicle: Klucel (hydroxypropylcellulose) (HPC) 98 % of control | dose: 100.0 mg/kg/injection, schedule: Q04DX002 (ip), vehicle: Klucel (hydroxypropylcellulose) (HPC) 105 % of control | [9] 100 % of control | dose: 200.0 mg/kg/injection, schedule: Q01DX001 (ip), vehicle: Klucel (hydroxypropylcellulose) (HPC) 99 % of control | dose: 200.0 mg/kg/injection, schedule: Q04DX002 (ip), vehicle: Klucel (hydroxypropylcellulose) (HPC) 105 % of control | [10] 104 % of control | dose: 400.0 mg/kg/injection, schedule: Q01DX001 (ip), vehicle: Klucel (hydroxypropylcellulose) (HPC) 94 % of control | dose: 400.0 mg/kg/injection, schedule: Q04DX002 (ip), vehicle: Klucel (hydroxypropylcellulose) (HPC) 94 % of control | [11] 98 % of control

C1CCC(C2CCCC(C3CCCCC3)C2)CC1 (stereo not drawn)
inactive: [12] 94 % of control | [13] 96 % of control | [14] 94 % of control

CCOC(=O)/C(C#N)=C(\CC)c1ccccc1
inactive: [18] 98 % of control | [20] 101 % of control

c1ccc([P+](c2ccccc2)(c2ccccc2)C2CCC2)cc1
inactive: dose: 9.4 mg/kg/injection, schedule: Q01DX009 (ip), vehicle: saline with Tween-80 121 % of control | dose: 18.8 mg/kg/injection, schedule: Q01DX009 (ip), vehicle: saline with Tween-80 88 % of control

O=C(O)C(O)(Cc1ccccc1)C(=O)C(O)C(O)CO (stereo not drawn)
inactive: [24] 87 % of control | [19] 106 % of control | [21] 91 % of control

COc1cc(/C=N\N=C(/C)c2ccc(F)cc2)cc(OC)c1OC
inactive: [18] 87 % of control | [20] 86 % of control | [22] 89 % of control

C[C@]12CC[C@@H]3c4ccc(O)cc4CC[C@H]3[C@@H]1CCC(=O)O2
inactive: [6] 97 % of control | [4] 97 % of control | [7] 95 % of control | [5] 90 % of control | [8] 95 % of control | [25] 100 % of control
